Results on 2 compounds are retold here after patent US7105529B2, “Substituted oxindole derivatives as protein tyrosine and as protein serine/threonine kinase inhibitors and compositions and methods of treating chemotherapy and radiation therapy side effects” (SmithKline Beecham Corporation, priority 1997, dated 2006).

The target in one test is CDK2 (Homo sapiens, UniProt P24941). The test is described as follows: CDK2 substrate phosphorylation assay. Type of test: biochemical.
Test [1] concerns RKO colon adenocarcinoma cells. The test is described as follows: FACS assay (cell death), RKO. Type of test: cell-based. To be noted: Homo sapiens; 50% cell death, 72 h. As to the method:
(§1) These assays allow determination of both cell death and changes in cell cycle profile in cells following treatment of the compound. The assay is performend as follows: • 1. Cells are incubated in DMEM to which 10% FCS has been added in a humidified incubator at 37° C. and 5% by volume of CO2 in air. The cells are innoculated in 6-well plates at a density of 0.5–5×10^5 cells per well. • 2. The test compound is added in serial dilutions 24–36 h after plating in 0.5% DMSO. The plates are then incubated a further 72 h in the presence of the compound. During this time, cells in control cultures undergo at least three cell divisions. • 3. After incubation, the media is collected and cells are harvested by trypsinization. The cells and media are pooled and pelleted by centrifugation. • 4. The cell pellet is fixed in a final volume of 3 mL of 50% ice cold MeOH and incubated for a minimum of 30 min at −20° C. • 5. The cells are pelleted by centrifugation and resuspended in 0.5 mL PBS containing 1%FCS, […] Propidium Iodide (PI) and […] RNase A and incubated 30 min at 37° C. in the dark. • 6. The samples are analysed by flow cytometry using the relative incorporation of PI as a measure of DNA content of each cell. The % Dead cells is recorded as % of events with less than 2N DNA. […] HDF are normal diploid fibroblast cells. […]
Background: In flow cytometry, cells or beads pass a laser one at a time.

In a further test the test system is MES/SA cells. The test is described as follows: FACS assay (cell death), MES/SA. Format: cell-based. To be noted: Homo sapiens, 50% cell death, 72 h. As for the experimental part: as §1
The next test deals with cSrc (Homo sapiens, UniProt P12931). The test can be described thus: Src kinase assay (ELISA or isotope format). Format: biochemical. As for the experimental part:
The peptide substrates used in Src and Lck assays were biotin-aminohexyl-EEIYGEF-NH2 (Src) and biotin-aminohexyl-[…]-NH2 (Lck). The src and Ick proteins were purified to homogeneity from a baculovirus expression system and preactivated before adding to assay mixtures. The maximum activation was achieved by incubating concentrated enzyme ([…]) on ice for 40 min in the presence of 1 mM ATP and 10 mM MgCl2 in 100 mM HEPES, pH 7.5. The activated enzyme was diluted to 2 nM into a […] reaction mixture containing 100 mM HEPES, pH 7.5, 5 mM ATP, 10 mM MgCl2, 2 mM peptide, 0.05 mg/mL BSA, and an inhibitor at varying concentrations and with or without 8 mCi/mL [γ-^33P]ATP dependent upon the method of analysis for the extent of reaction. The controls were reactions in the presence (negative controls) or absence (positive controls) of 50 mM EDTA. Reactions were allowed to proceed for 30 min at room temperature and quenched with addition of EDTA to 50 mM in […]. The extent of reactions was analyzed in one of the two ways: an Elisa-based and a radioactive isotope-based. The quenched samples ([…]) were transferred to a neutravidin coated plate (Perice) and incubated at room temperature for 40 min to allow biotinylated peptide to bind to neutravidin. […] The plate was read at A625 in a plate reader. […] The plate was sealed and counted in a micro-b-counter (Wallac). […]
(In general: An ELISA detects its analyte on a solid surface through an enzyme-linked reagent.)

In the next test the target is Lck (Homo sapiens, UniProt P06239). The test is described as follows: Lck kinase assay (ELISA or isotope format). Format: biochemical.
A further test addresses VEGFR-2 (Homo sapiens, UniProt P35968). The test can be described thus: VEGFR-2 kinase assay. Type of test: biochemical. To be noted: read-out: VEGFR2 (IC50).
The target in the next test is T1, UL97 (Human cytomegalovirus, UniProt P16788).
T1 construct: GST; made in house; host or cells: sf9 cells (baculovirus vector)
The test is described as follows: UL97 protein kinase assay (32P transfer to histone H2B). Format: biochemical. As for the experimental part:
UL97 was produced as a GST fusion protein from a baculovirus vector expressed in sf9 cells as described by He (He, et al., Journal of Virology 1997, 71, 405–11). UL97 was assayed as a protein kinase using ^32P transfer from ATP to histone H2B with detection of radiolabeled histone bound to phosphocellulose. Assay mixes for testing inhibitors of UL97 activity contained 2 mM [γ^32P]-ATP, 15 mM histone H2B, 50 mM sodiumCHES, pH 9.5, 1 M NaCl, 2 mM dithiothreitol and 10 mM MgCl2. Inhibitors were dissolved in diluted DMSO to give a final DMSO concentration in the reaction of 1% DMSO. After incubation at 20° C., the reactions were terminated by addition of 10 volumes of 75 mM phosphoric acid, 30 mM ATP, 1 mM EDTA, then were spotted onto phosphocellulose filters and washed four times with 75 mM phosphoric acid. Radioactivity was determined by liquid scintillation counting.

cSrc, sequence (P12931 whole entry): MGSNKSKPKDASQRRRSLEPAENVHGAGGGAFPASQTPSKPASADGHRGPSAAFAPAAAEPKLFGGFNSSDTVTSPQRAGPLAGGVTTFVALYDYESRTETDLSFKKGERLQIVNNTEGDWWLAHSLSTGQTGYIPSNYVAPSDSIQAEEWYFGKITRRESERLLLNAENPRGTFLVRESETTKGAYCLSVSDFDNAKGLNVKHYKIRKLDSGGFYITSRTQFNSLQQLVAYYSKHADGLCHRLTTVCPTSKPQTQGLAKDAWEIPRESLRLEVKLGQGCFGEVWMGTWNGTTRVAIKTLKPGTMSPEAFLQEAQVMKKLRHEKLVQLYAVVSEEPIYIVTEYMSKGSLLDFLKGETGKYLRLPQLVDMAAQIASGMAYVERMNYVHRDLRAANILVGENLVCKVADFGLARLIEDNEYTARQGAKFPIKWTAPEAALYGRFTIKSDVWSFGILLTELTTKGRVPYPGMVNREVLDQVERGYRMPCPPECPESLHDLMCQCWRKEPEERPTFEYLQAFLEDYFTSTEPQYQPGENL
T1 sequence (P16788 whole entry): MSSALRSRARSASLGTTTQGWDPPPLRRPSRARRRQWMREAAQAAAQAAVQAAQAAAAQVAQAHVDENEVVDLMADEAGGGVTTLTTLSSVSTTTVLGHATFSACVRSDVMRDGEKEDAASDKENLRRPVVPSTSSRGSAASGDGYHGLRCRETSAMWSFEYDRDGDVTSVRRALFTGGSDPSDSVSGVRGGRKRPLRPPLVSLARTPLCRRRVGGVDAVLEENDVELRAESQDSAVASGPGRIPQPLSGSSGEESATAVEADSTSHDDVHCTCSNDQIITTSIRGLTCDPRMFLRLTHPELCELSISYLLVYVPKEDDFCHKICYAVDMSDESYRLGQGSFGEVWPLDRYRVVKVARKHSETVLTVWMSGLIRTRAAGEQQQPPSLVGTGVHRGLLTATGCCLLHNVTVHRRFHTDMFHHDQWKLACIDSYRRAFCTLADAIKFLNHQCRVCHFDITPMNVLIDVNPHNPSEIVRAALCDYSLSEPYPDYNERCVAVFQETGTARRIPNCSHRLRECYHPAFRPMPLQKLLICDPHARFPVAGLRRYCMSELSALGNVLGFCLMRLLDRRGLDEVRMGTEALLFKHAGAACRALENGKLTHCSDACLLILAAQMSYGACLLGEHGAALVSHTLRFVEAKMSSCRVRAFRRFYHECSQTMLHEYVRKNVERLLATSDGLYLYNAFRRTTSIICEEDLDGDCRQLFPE
VEGFR-2, sequence (P35968 834-1162 limits assumed): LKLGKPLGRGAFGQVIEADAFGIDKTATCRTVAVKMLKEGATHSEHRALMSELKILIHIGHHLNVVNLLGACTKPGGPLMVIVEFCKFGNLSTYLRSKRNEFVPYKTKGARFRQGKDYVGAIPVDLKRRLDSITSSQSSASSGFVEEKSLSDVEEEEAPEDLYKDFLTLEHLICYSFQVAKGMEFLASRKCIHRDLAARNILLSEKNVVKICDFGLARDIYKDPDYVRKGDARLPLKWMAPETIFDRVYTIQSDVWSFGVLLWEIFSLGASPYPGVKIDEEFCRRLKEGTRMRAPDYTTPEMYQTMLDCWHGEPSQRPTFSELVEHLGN
Lck, sequence (P06239 whole entry): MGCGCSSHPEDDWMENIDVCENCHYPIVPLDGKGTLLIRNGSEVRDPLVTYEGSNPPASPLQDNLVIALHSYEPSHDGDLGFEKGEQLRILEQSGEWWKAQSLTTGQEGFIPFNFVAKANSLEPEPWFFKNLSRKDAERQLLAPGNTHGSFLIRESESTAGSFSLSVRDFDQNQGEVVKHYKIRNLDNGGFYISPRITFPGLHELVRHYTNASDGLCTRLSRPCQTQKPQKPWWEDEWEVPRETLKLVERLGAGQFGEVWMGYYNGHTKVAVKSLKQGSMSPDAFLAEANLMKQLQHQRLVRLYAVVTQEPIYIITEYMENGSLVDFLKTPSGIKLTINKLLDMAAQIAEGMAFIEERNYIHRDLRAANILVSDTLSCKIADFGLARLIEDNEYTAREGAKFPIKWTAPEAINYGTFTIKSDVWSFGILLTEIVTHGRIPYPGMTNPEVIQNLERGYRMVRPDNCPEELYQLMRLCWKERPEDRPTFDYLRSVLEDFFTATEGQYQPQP
Experimental for CDK2: CDK1 and CDK2 were both expressed utilizing a baculovirus expression system and were partially purified to comprise 20–80% of total protein, with no detectable competing reactions present. […] Reactions were terminated with 0.2–2 volumes of either 20% acetic acid or 50–100 mM EDTA buffered to pH 7 (substrate consumption <20%). The buffer employed in enzyme assays was either 30 mM HEPES 7.4 containing 0.15 M NaCl and 5% DMSO, the buffer 50 mM MOPS 7.0 containing 0.15 M NaCl and 5% DMSO, or the buffer 100 mM HEPES pH 7.5 containing 0.1 mg/mL BSA and 5% DMSO. Inhibitors were diluted in 100% DMSO prior to addition into the assay. Detection of peptide phosphorylation was accomplished by scintillation counting following either collection of peptide onto phosphocellulose filters (for reactions stopped with acetic acid), collection of peptide in wells of 96 well plates coated with Streptavidin (Pierce) (reactions were stopped with EDTA), or addition of Avidin coated Scintillant impregnated beads (Scintillation Proximity Assays from Amersham, reactions were stopped with EDTA).
CDK1 and CDK2 were both expressed utilizing a baculovirus expression system and were partially purified to comprise 20–80% of total protein, with no detectable competing reactions present. […]
Experimental for Lck: The src and Ick proteins were purified to homogeneity from a baculovirus expression system and preactivated before adding to assay mixtures. The maximum activation was achieved by incubating concentrated enzyme (10–30 mM) on ice for 40 min in the presence of 1 mM ATP and 10 mM MgCl2 in 100 mM HEPES, pH 7.5. The activated enzyme was diluted to 2 nM into a 50-mL reaction mixture containing 100 mM HEPES, pH 7.5, 5 mM ATP, 10 mM MgCl2, 2 mM peptide, 0.05 mg/mL BSA, and an inhibitor at varying concentrations and with or without 8 mCi/mL [γ-^33P]ATP dependent upon the method of analysis for the extent of reaction. The controls were reactions in the presence (negative controls) or absence (positive controls) of 50 mM EDTA. Reactions were allowed to proceed for 30 min at room temperature and quenched with addition of EDTA to 50 mM in 220 mL. The extent of reactions was analyzed in one of the two ways: an Elisa-based and a radioactive isotope-based. The quenched samples (200 mL) were transferred to a neutravidin coated plate (Perice) and incubated at room temperature for 40 min to allow biotinylated peptide to bind to neutravidin. The unbound peptide and the rest of the solution was washed away using a plate washer. […] The plate was read at A625 in a plate reader. […] The plate was sealed and counted in a micro-b-counter (Wallac). […]
Experimental for VEGFR-2: The kinase domain of the enzyme was purified to homogeneity from a baculovirus expression system. The enzyme was preactivated on ice for 15 min in the presence of 100 μM ATP and 20 mM MgCl2, and stored at −80° C. until needed for assay. The activated enzyme was diluted to 0.4 nM into a 60 μl reaction containing 100 mM HEPES, pH 7.5, 5 μM ATP, 10 mM MgCl2, 5 μM peptide, 0.1 mM DTT, 0.05 mg/ml BSA, and an inhibitor at varying concentrations. The controls were reactions in the presence (negative controls) or absence (positive controls) of 50 mM EDTA. Reactions were incubated for 30 min at room temperature, and then quenched by the addition of EDTA to 60 mM in 210 μl. The quenched samples (190 μl) were transferred to a neutravidin-coated plate (Pierce) and incubated at room temperature for 40 min to allow biotinylated peptide to bind to the neutravidin. The unbound components of the reaction were removed by washing with a plate washer, then 200 μl HRP-PY20 anti-phosphotyrosine antibody conjugate was added to each well. After incubation for 40 min, the plate was washed to remove any unbound anitbody. A HRP substrate, K-blue (Neogen) was added and the reaction was quenched with Red Stop (Neogen) after 20 min. The absorbance of the wells was read at A650 in a plate reader. IC50 values were obtained by fitting raw data to A650=VMAX*(1−[I]/IC50+[I])))+b, where b is background.

Usually IC50 stands for the concentration that inhibits the measured activity by half. Regarding `COC(=O)c1ccc2c(c1)/C(=C/Nc1ccc(S(N)(=O)=O)cc1)C(=O)N2` [Example 27], the IC50 lay in the range of 1 to 10 nM on CDK2 and 1.1 to 5 µM in test [1].
Turning to `NS(=O)(=O)c1ccc(NN=C2C(=O)Nc3ccc(-c4cnco4)cc32)cc1` [Example 36], the IC50 was 100 to 500 nM with MES/SA cells; > 100 nM at cSrc; > 100 nM at Lck; > 100 nM at VEGFR-2; 11 to 50 nM against UL97.
